Series [1] deals with theophylline dependent riboswitch B. The series can be described thus: Inducible T7 expression system, PT7-YFP reporter fluorescence. In kind it is cell-based, S. elongatus. The note with it: mutated PconII*. The method, then:
(§1) FIGS. 2A-2B show characterization of inducible T7 expression systems in S. elongatus at different theophylline concentrations. The expression of the T7RNAP was driven by a mutated PconII* and was translationally controlled by riboswitch B (FIG. 2A) or riboswitch F (FIG. 2B). YFP fluorescence served as an easily readable output. Three independent strains were analyzed for each construct and error bars indicate standard deviations of the replicates.
(§2) To establish a functional and inducible T7RNAP based expression system for S. elongatus, devices were constructed where the transcription of the T7 RNA polymerase was driven by the conII promoter and its translation was controlled by either the theophylline dependent riboswitches B or F (Ma et al 2014). […] Thus, the potentiality of these regulatory devices when using a TRNAP expression system in S. elongatus was studied. Initially, the inventors constructed a reporter device in which the YFP reporter gene was driven by the PT7 and the T7RNAP expression was left under the control of a PconII-riboswitch (B or F). Both the T7RNAP expression systems and the reporter PT7-YFP were independently integrated at NS1 and NS2 of S. elongatus chromosome (Clerico et al 2007).

The test system of series [2] is theophylline dependent riboswitch F. The series is described as above. In kind it is cell-based, S. elongatus. The conditions noted are these: mutated PconII*. The protocol:
as §1, §2

The test system of series [3] is S. elongatus recombinant strain MatB F pfm (module IIA). The series can be described thus: Bioconversion assay, MBE production at different theophylline concentrations. In kind it is cell-based, Synechococcus elongatus. The protocol: FIGS. 6A-6B show MBE biosynthesis by recombinant MatB F pfm and MatB B6 pfm cyanobacterial strains induced with different theophylline concentrations.
The two strains containing module IA (MatB) for methylmalonyl-CoA biosynthesis, modules IIA or IIB for T7 RNAP and Sfp expression, and module III for the Mas and accessory enzyme expression were analyzed. In addition, strains without the module III and a wild type strain were comprised as negative controls. For the bioconversion assays the strains were induced with theophylline 2 mM and 24 h later supplemented with 10 mM methylmalonate, 0.25 mM n-octanol and labeled with 2 μCi ^14C-acetate (58.9 mCi/mmol, PerkinElmer). After addition of the precursors the cultures were grown for 48 h, the in vivo synthesis of MBE was analyzed on total lipid extractions from each culture by TLC fractionation and autoradiography (FIGS. 3A-3B). Additional control bioconversion assays were carried out in the absence of either or both precursors, and labeled MBE synthesized by the E. coli strain RQ1 used as a standard (Menendez-Bravo et al. 2014). […]

Series [4] deals with S. elongatus AMC2302 wild type. The series can be described thus: Cell toxicity analysis of precursors. The conditions noted are these: final concentration of 1 mM; preliminary analyses, FIG. 12A. In kind it is cell-based, Synechococcus elongatus. The method, then:
FIGS. 12A-12B show cell toxicity analysis to determine the optimal concentration of precursors. FIG. 12A is an image showing cell growth after addition of substrate. Methylmalonate (me-malonate) and propionate were added to S. elongatus AMC2302 wild type at different concentrations: 0, 1, 5, 10, 15, and 20 mM. Each column is a duplicate of the experiment. FIG. 12B is an image showing cell growth after addition of substrate. n-octanol was added to S. elongatus AMC2302 wild type at different concentrations: 0.125, 0.25, 0.5, 1, 2, and 0 mM. Each column is a duplicate (FIG. 12A), or triplicate of the experiment (FIG. 12B).
While module I was constitutively expressed from Peonn (Elledge and Davis et al. 1989; Taton et al. 2014), the expression and activation of module III depended on the expression of the T7 RNAP and Sfp placed in downstream PconII and under the translational control of theophylline inducible riboswitches. The biosynthesis of methylmalonyl-CoA required methylmalonate (module IA) or propionate (module IC) as substrates, and the transesterification of the ACP-bound MBFA required an alcohol substrate (n-octanol) to produce MBE as the final product. Cell toxicity analysis with methylmalonate, propionate and n-octanol were carried out to determine the optimal concentration of these precursors. (FIG. 12). […]

In series [5] the test system is S. elongatus. The conditions noted are these: at low concentrations; previously reported; cited from earlier work.

On to `Cn1c(=O)c2[nH]cnc2n(C)c1=O` [theophylline], for which the “concentration of theophylline needed to reach maximal fluorescence” value in series [1] came to 2 mM; in series [2] it was 1 mM. Besides, in series [3] (8 mM theophylline), the “effect on cell viability” value was “detrimental to cell viability”. In addition, the “theophylline concentration reaching high levels of MBE production” value in series [3] (module IIA, methylmalonate 10 mM, n-octanol 0.25 mM) is recorded as 4 mM.
Take `CCC(=O)O` [propionate]: the “toxicity for S. elongatus” value is listed as “not toxic” in series [4] and “toxic” in series [5].

The values are drawn from patent US11274324B2, “Engineering polyketide synthase in cyanobacteria” (The Regents of the University of California, priority 2019, dated 2022).
